The species entered for experiment [1] is Homo sapiens. Nature of the experiment: Induction of adipogenesis in human MSC at 10 uM incubated for 5 days cotreated with IDX by ELISA. It counts as functional. In general terms: In an ELISA, binding on a coated surface is turned into a signal by an enzyme label.
Experiment [2] is filed under the species Homo sapiens. Nature of the experiment: Induction of adipogenesis in human MSC at 10 uM incubated for 5 days cotreated with IDX by ELISA relative to control. It counts as functional.
The target of experiment [3] is T1, Peroxisome proliferator-activated receptor alpha (Homo sapiens) (UniProt Q07869).
T1 sequence (whole entry): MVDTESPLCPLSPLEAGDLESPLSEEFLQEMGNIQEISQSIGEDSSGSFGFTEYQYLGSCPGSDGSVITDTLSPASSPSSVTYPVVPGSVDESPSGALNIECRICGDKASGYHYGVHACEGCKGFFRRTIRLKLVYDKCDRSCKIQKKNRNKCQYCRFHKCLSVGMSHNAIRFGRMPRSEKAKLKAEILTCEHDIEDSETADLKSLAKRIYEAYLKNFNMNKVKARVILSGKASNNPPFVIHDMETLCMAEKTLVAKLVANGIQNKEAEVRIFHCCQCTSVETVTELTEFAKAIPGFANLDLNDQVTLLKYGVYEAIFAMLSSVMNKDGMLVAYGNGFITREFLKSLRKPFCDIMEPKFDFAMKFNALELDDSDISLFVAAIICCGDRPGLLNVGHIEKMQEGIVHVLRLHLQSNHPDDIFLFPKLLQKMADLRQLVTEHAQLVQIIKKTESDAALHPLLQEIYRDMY
Nature of the experiment: Binding affinity to GST-tagged human PPARalpha LBD up to 30 uM incubated for 2 to 6 hrs by TR-FRET assay.

Experiment [4] concerns the target T2, Peroxisome proliferator-activated receptor gamma (Homo sapiens) (UniProt P37231).
T2 sequence (whole entry): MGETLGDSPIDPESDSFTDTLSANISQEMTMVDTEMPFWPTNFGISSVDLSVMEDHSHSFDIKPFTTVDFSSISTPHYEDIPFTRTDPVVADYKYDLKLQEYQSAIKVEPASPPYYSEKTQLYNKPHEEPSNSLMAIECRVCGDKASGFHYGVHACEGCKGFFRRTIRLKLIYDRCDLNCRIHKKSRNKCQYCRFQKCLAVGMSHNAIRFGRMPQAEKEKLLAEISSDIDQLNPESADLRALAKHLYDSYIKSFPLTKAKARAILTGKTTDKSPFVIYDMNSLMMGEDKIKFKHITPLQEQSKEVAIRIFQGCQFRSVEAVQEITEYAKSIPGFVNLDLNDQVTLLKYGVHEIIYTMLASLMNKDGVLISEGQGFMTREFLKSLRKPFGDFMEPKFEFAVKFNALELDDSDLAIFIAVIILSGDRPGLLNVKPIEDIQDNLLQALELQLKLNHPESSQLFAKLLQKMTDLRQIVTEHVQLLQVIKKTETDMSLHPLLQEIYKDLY
The experiment can be described thus: Competitive binding affinity to GST-tagged human PPARgamma LBD at 30 uM incubated for 1 to 6 hrs by TR-FRET assay relative to control. A general note: In TR-FRET formats the signal depends on donor and acceptor labels being close together.

Experiment [5] addresses T3, Peroxisome proliferator-activated receptor delta (Homo sapiens) (UniProt Q03181).
T3 sequence (whole entry): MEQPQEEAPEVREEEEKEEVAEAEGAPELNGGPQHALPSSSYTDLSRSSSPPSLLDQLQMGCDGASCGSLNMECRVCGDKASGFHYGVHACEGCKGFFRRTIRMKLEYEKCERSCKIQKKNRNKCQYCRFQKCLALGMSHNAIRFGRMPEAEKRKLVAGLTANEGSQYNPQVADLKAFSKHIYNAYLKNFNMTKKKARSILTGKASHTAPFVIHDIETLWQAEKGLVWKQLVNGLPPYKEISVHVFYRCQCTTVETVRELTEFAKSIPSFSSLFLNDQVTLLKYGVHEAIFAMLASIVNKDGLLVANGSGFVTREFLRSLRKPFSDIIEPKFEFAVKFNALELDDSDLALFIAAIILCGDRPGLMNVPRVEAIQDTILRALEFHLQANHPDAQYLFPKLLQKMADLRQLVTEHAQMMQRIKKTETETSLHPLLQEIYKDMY
Nature of the experiment: Competitive binding affinity to GST-tagged human PPARdelta LBD at 30 uM incubated for 1 to 6 hrs by TR-FRET assay relative to control.

Experiment [6] is described as follows: Induction of adipogenesis in human MSC incubated for 5 days cotreated with IDX by ELISA. It counts as functional.
Experiment [7] is filed under the species Homo sapiens. Nature of the experiment: Induction of adipogenesis in human MSC assessed as increase in size of lipid droplets in differentiated adipocytes at 10 uM by Oil Red O staining based inverted microscopic method. It counts as functional, cell-based.
The species named for experiment [8] is Homo sapiens. The experiment can be described thus: Induction of adipogenesis in human MSC assessed as increase in number of lipid droplets in differentiated adipocytes at 10 uM by Oil Red O staining based inverted microscopic method. It counts as functional, cell-based.
Experiment [9] deals with T2, Peroxisome proliferator-activated receptor gamma (Homo sapiens). Nature of the experiment: (§1) Competitive binding affinity to GST-tagged human PPARgamma LBD incubated for 1 to 6 hrs by TR-FRET assay.
The target in experiment [10] is T4, Peroxisome proliferator-activated receptor gamma (Homo sapiens, UniProt P37231).
T4 sequence (P37231 whole entry): T2 sequence (whole entry)
The description is as §1.

The target of experiment [11] is T3, Peroxisome proliferator-activated receptor delta (Homo sapiens). The experiment can be described thus: (§2) Competitive binding affinity to GST-tagged human PPARdelta LBD incubated for 1 to 6 hrs by TR-FRET assay.
Experiment [12] deals with T5, Peroxisome proliferator-activated receptor delta (Homo sapiens, UniProt Q03181).
T5 sequence (Q03181 whole entry): T3 sequence (whole entry)
Described as §2.

The target in experiment [13] is T2, Peroxisome proliferator-activated receptor gamma (Homo sapiens). The experiment can be described thus: Partial agonist at PPARgamma LBD (unknown origin) assessed as increase in recruitment of coactivator peptide C33 by TR-FRET assay relative to control.
The target is the same in experiment [14]. Nature of the experiment: Partial agonist at PPARgamma LBD (unknown origin) assessed as inhibition in recruitment of coactivator peptide C33 cotreated with PPARgamma agonist troglitazone by TR-FRET assay.
Experiment [15] concerns the target T5, Peroxisome proliferator-activated receptor delta. Nature of the experiment: Antagonist activity at PPARdelta LBD (unknown origin) assessed as increase in recruitment of SMRT ID2 corepressor peptide by TR-FRET assay.
Experiment [16] has the same target. Nature of the experiment: Antagonist at PPARdelta LBD (unknown origin) assessed as […] in recruitment of coactivator peptide C33 cotreated with PPARdelta agonist GW501516 by TR-FRET assay.

The source made the active and inactive calls. No cut-off for these calls is given here. Where only a bound is given, the exact number is not on record here.

A word on the EC50: it is the concentration giving half of the maximal effect.

On to `CNC(=O)[C@H]1[Se][C@@H](n2cnc3c(NCc4cccc(I)c4)nc(Cl)nc32)[C@H](O)[C@@H]1O`, for which the result in the experiment filed under Homo sapiens [1], in the experiment listed under Homo sapiens [7] and in the experiment listed under Homo sapiens [8] was Active. For the same compound, the fold change (FC) in the experiment listed under Homo sapiens [2] is 3.22. The result in experiment [3] was inactive. Also, the Activity was over 50% in experiment [4]; over 50% in experiment [5]; “Dose-dependent effect” in experiment [9]; “Dose-dependent effect” in experiment [11]; under 50% in experiment [13]. In addition, the concentration giving a half-maximal response (EC50) in [6] turned out to be 12.6 µM; in experiment [10], 5.31 µM; in experiment [12], 0.0144 µM; in [15], 7.3 µM; in [16], 5.2 µM. In [14], the inhibition entry was “Active”.
Consider `CNC(=O)[C@H]1O[C@@H](n2cnc3c(NCc4cccc(I)c4)nc(Cl)nc32)[C@H](O)[C@@H]1O` [NAMODENOSON], for which the result in [3] was inactive. Moreover, the EC50 came to 40.6 µM in experiment [6], 2.94 µM in [10], 0.191 µM in experiment [12] and 29.8 µM in [16]. In addition, the Activity in [13] was under 50%.
Take `CCc1ccc(CCOc2ccc(CC3SC(=O)NC3=O)cc2)nc1` (stereo unspecified) [PIOGLITAZONE]: the EC50 in [6] worked out at 0.5 µM.
For the compound `CNC(=O)[C@H]1[Se][C@@H](n2cnc3c(NC4CCCC4)ncnc32)[C@H](O)[C@@H]1O`, the result in [3] was inactive.
As to `CNC(=O)[C@H]1O[C@@H](n2cnc3c(NCc4cccc(I)c4)ncnc32)[C@H](O)[C@@H]1O`, in experiment [3], the outcome was inactive.
For `CNC(=O)[C@H]1[Se][C@@H](n2cnc3c(NCc4cccc(I)c4)ncnc32)[C@H](O)[C@@H]1O`, the outcome (in the experiment listed under Homo sapiens [1]; in experiment [4]) was Active. Moreover, the outcome in experiment [3] was inactive. Also, the Activity in experiment [5] is over 50%.
Take `CNC(=O)[C@H]1[Se][C@@H](n2cnc3c(NCc4cccc5ccccc45)ncnc32)[C@H](O)[C@@H]1O`: the result (in the experiment listed under Homo sapiens [1]; in experiment [4]) was Active. Besides, the outcome in experiment [3] was inactive.
On to `CNC(=O)[C@H]1[Se][C@@H](n2cnc3c(NCc4cccc(Br)c4)nc(Cl)nc32)[C@H](O)[C@@H]1O`, for which the result (in the experiment listed under Homo sapiens [1]; in [4]) was Active. For the same compound, in [3], the result was inactive. Further, the Activity in experiment [5] was over 50%.
As to `CNC(=O)[C@H]1[Se][C@@H](n2cnc3c(NCc4cccc(Br)c4)ncnc32)[C@H](O)[C@@H]1O`, in the experiment listed under Homo sapiens [1], the result was Active. Further, the outcome in experiment [3] was inactive. Further, the Activity in [5] is over 50%.
Regarding `CNC(=O)[C@H]1S[C@@H](n2cnc3c(NCc4cccc(I)c4)ncnc32)[C@H](O)[C@@H]1O`, the outcome in experiment [3] was inactive.
Turning to `CNC(=O)[C@H]1[Se][C@@H](n2cnc3c(NCc4cccc(F)c4)ncnc32)[C@H](O)[C@@H]1O`, the result in experiment [3] was inactive.
Turning to `CNC(=O)[C@H]1S[C@@H](n2cnc3c(NCc4cccc(I)c4)nc(Cl)nc32)[C@H](O)[C@@H]1O`, in experiment [3], the result was inactive. The EC50 is 20.8 µM in experiment [6]; 4.64 µM in experiment [10]; 0.0411 µM in experiment [12]; 16.7 µM in [15]; 10.7 µM in experiment [16]. Moreover, the Activity in [13] is under 50%.
On to `CNC(=O)[C@H]1[Se][C@@H](n2cnc3c(NCc4cccc(Cl)c4)nc(Cl)nc32)[C@H](O)[C@@H]1O`, for which the outcome (in the experiment filed under Homo sapiens [1]; in experiment [4]) was Active. Besides, the outcome in [3] was inactive. The Activity in experiment [5] is over 50%.
As for `CNC(=O)[C@H]1[Se][C@@H](n2cnc3c(NCc4ccccc4Cl)ncnc32)[C@H](O)[C@@H]1O`, the outcome in [3] was inactive.
`CNC(=O)[C@H]1[Se][C@@H](n2cnc3c(NCc4cccc(F)c4)nc(Cl)nc32)[C@H](O)[C@@H]1O`: the result in the experiment filed under Homo sapiens [1] was Active. In experiment [3], the outcome was inactive. In [5], the Activity was over 50%.

(Values after ChEMBL document CHEMBL4610002, “Selenium bioisosteric replacement of adenosine derivatives promoting adiponectin secretion increases the binding affinity to peroxisome proliferator-activated receptor δ” (Bioorg Med Chem, 2020).)
